Measured values taken from the NIST ThermoML archive (doi:10.1016/j.jct.2019.03.009).

Assay: mn = molality of the nth substance listed, in mol/kg
Details: 298.15 K, 101.3 kPa, Liquid, Taylor dispersion method

CCC(N)C(=O)O (stereo not drawn) [(.+-.)-α-aminobutyric acid] + O
binary diffusion coefficient (m1 = 0.001003): 8.42e-10 m2/s
binary diffusion coefficient (m1 = 0.005014): 8.41e-10 m2/s
binary diffusion coefficient (m1 = 0.01003): 8.39e-10 m2/s
binary diffusion coefficient (m1 = 0.02005): 8.38e-10 m2/s
binary diffusion coefficient (m1 = 0.05008): 8.35e-10 m2/s
binary diffusion coefficient (m1 = 0.1): 8.32e-10 m2/s
